pIC50: −log10 of the molar value.

The first series relates to glycated bovine serum albumin (AGE-BSA) cross-linking to rat tail tendon collagen.
Assay: not given
Conditions: 4 h, pH 7.4.
For the compound `CC(C=NNc1ccccc1C(=O)O)=NNc1ccccc1C(=O)O` [Methylglyoxal Bis-(2-Hydrazinobenzoic Acid) Hydrazone], the pIC50 is 4.40. On to `CC(C=NNc1ccc(C(=O)O)cc1)=NNc1ccc(C(=O)O)cc1` [Methyl Glyoxal Bis-(4-Hydrazinobenzoic Acid) Hydrazone], for which the pIC50 was 1.94.

System in a further series: not listed separately
Briefly: Inhibition of cross-linking of N-acetyl glycyl-lysine methyl ester in the presence of ribose (fluorescence). The format is biochemical. Conditions: 0.5M sodium phosphate buffer pH 7.4, ribose, 37 C, 16-24 hours; fluorescence ex 350 nm / em 400 nm. How it is done: N-acetylglycyllysine methyl ester (DP in formula below) Ribose (R in formula below)
0.5M sodium phosphate buffer pH 7.4 N-acetylglycyllysine methyl ester in 0.5M sodium phosphate buffer, pH 7.4
Test compounds dissolved in the above buffer and the pH is adjusted to 7.4, if necessary
Reaction mixtures are prepared as follows:
and incubated at 37 C for 16-24 hours. At the end of the incubation period, the fluroescence is read using an excitation wavelength of 350 nm and emission wavelenth of 400 nm. The inhibition of the cross-linking is calculated from the decrease in the fluorescence in the presence of the test compounds according to the formula:
Inhibition (%)=100×[DPRC fluorescence-RC fluorescence]/DPR
As to `CC(C=NNc1ccccc1C(=O)OCc1ccncc1)=NNc1ccccc1C(=O)OCc1ccncc1` [Methyl Glyoxal Bis-[4-Methylpyridyl)-2-Hydrazinobenzoate] Hydrazone], the pIC50 was 2.91. Take `CC(C=NNc1ccccc1C(=O)O)=NNc1ccccc1C(=O)O` [Methylglyoxal Bis-(2-Hydrazinobenzoic Acid) Hydrazone]: the pIC50 is 3.81. `CC(C=NNc1ccccc1)=NNc1ccccc1` [Methyl Glyoxal Bis-(Phenylhydrazine) Hydrazone]: the pIC50 is under 2.00.

As to `CC(C=NNc1ccccc1C(=O)OCCOCCOCCO)=NNc1ccccc1C(=O)OCCOCCOCCO` [Methyl Glyoxal Bis-(Triethylene Glycol 2-Hydrazinobenzoate) Hydrazone], the pIC50 is 2.82. The same measure, in the same setting: as for `COC(=O)c1ccccc1NN=CC(C)=NNc1ccccc1C(=O)OC` [Methyl Glyoxal Bis-(Dimethyl 2-Hydrazinobenzoate)Hydrazone], the figure is under 2.00; as for `COCCOCCOC(=O)c1ccccc1NN=CC(C)=NNc1ccccc1C(=O)OCCOCCOC` [Methyl Glyoxal Bis-(Diethylene Glycol Methyl Ether 2-Hydrazinobenzoate) Hydrazone], under 2.00. In the case of `CCOC(=O)c1ccccc1NN=CC(C)=NNc1ccccc1C(=O)OCC` [Methyl Glyoxal Bis-(Diethyl 2-Hydrazinobenzoate) Hydrazone], the pIC50 is 2.00. Still for that read-out and setting: the same measure for `CC(C=NNc1ccc(C(=O)O)cc1)=NNc1ccc(C(=O)O)cc1` [Methyl Glyoxal Bis-(4-Hydrazinobenzoic Acid) Hydrazone]: 3.93.

As for `CC(C=NNc1ccccc1C(=O)OCCO)=NNc1ccccc1C(=O)OCCO` [Methyl Glyoxal Bis-[1-(2-Hydroxyethane)-2-Hydrazinobenzoate] Hydrazone], the pIC50 is 2.52. Consider `CC(C=NNc1ccccc1C(=O)OCc1ccc([N+](=O)[O-])cc1)=NNc1ccccc1C(=O)OCc1ccc([N+](=O)[O-])cc1`, for which the pIC50 is 2.00. As for `CC(C=NNc1ccccc1C(=O)OCC(O)CO)=NNc1ccccc1C(=O)OCC(O)CO` (centres unmarked) [Methyl Glyoxal Bis-[1-(2,3-Dihydroxypropane)-2-Hydrazinobenzoate] Hydrazone], the pIC50 is under 2.52.

Take “Methyl Glyoxal Bis-[(1-Hydroxymethyl-1-Acetoxy)-2-Hydrazinobenzoate] Hydrazone”: the pIC50 was 3.12. As to `CC(C=NNc1ccccc1C(=O)OCCOP(=O)(O)O)=NNc1ccccc1C(=O)OCCOP(=O)(O)O` [Methyl Glyoxal Bis-(2-Hydroxyethylphosphate-2-Hydrazinobenzoate) Hydrazone], the negative-log IC50 (pIC50) is 3.22.

For the compound `COC(=O)c1ccc(NN=CC(C)=NNc2ccc(C(=O)OC)cc2)cc1` [Methyl Glyoxal Bis-(Dimethyl 4-Hydrazinobenzoate) Hydrazone], the pIC50 was 2.00.

Another series concerns fixed protein (gelatin, i.e., collagen) surface. Briefly: Surface browning experiment on gelatin/paper disks with glucose-6-phosphate. Conditions: Peridex at a final concentration of 0.04% chlorhexidine, with 100 Mm glucose-6-phosphate, one week at 50° C. How it is done: To further study the ability of inhibitors of nonenzymatic browning to prevent the discoloration of protein on a surface, such as that which occurs on the tooth surface, the following surface browning experiment is performed. As a substitute for a pellicle-covered tooth surface, unexposed and developed photographic paper is used to provide a fixed protein (gelatin, i.e., collagen) surface on a paper backing. Five millimeter circles are punched and immersed for one week at 50° C. in a solution of 100 Mm glucose-6-phosphate in a 0.5M phosphate buffer, pH 7.4, containing 3 Mm sodium azide. Glucose-6-phosphate is a sugar capable of participating in nonenzymatic browning at a more rapid rate than glucose. In addition to the glucose-6-phosphate, chlorhexidine and/or a compound of Formula I are included. After incubation, the gelatin/paper disks are rinsed with water, observed for brown color, and photographed.
Turning to `[H]/N=C(\N/C(=N/[H])NCCCCCCNC(=N)NC(=N)Nc1ccc(Cl)cc1)Nc1ccc(Cl)cc1` [chlorhexidine], the “browning of the gelatin/paper disks” value is reported as “significant browning”.

These data come from patent publication US5661139A, “Bis-(2-aryl) hydrazones” (Alteon Inc., priority 1995, dated 1997).
